Measurements published in ChEMBL document CHEMBL1201862, “PubChem BioAssay data set” (2004).
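48-hour exposure; five concentrations; linearly interpolated endpoints. GI50 is the concentration that inhibits growth by half.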 Activity calls are given as the source filed them. No stated cut-off is given here; in the data, active = GI50 up to about 1.1 µM and inactive = higher.

Tests used:
Assay in all cases: NCI-60 cell line screen, 48 h
[1] = test system: CCRF-CEM
[2] = test system: SR
[3] = test system: EKVX
[4] = test system: DU-145
[5] = test system: OVCAR-3
[6] = test system: SK-MEL-28
[7] = test system: PC-3
[8] = test system: NCI/ADR-RES
[9] = test system: ACHN
[10] = test system: IGROV-1
[11] = test system: SF-539
[12] = test system: HT-29
[13] = test system: U-251
[14] = test system: SK-MEL-5
[15] = test system: NCI-H226
[16] = test system: HCC 2998
[17] = test system: OVCAR-4
[18] = test system: MDA-MB-435
[19] = test system: RPMI-8226
[20] = test system: MDA-N

Structure (SMILES) | GI50 [1] | GI50 [2] | GI50 [3] | GI50 [4] | GI50 [5] | GI50 [6] | GI50 [7] | GI50 [8] | GI50 [9] | GI50 [10] | GI50 [11] | GI50 [12] | GI50 [13] | GI50 [14] | GI50 [15] | GI50 [16] | GI50 [17] | GI50 [18] | GI50 [19] | GI50 [20]
O=C(O)C(Cc1ccccc1)NCc1c(O)ccc2c(-c3ccccc3)cc(=O)oc12 (stereo not given) | > 100 µM (inactive) | > 100 µM (inactive) | > 100 µM (inactive) | > 100 µM (inactive) | > 100 µM (inactive) | > 100 µM (inactive) | > 100 µM (inactive) | > 100 µM (inactive) | > 100 µM (inactive) | > 100 µM (inactive) | > 100 µM (inactive) | > 100 µM (inactive) | > 100 µM (inactive) | > 100 µM (inactive) | > 100 µM (inactive) | > 100 µM (inactive) | > 100 µM (inactive) | > 100 µM (inactive) | > 100 µM (inactive) | > 100 µM (inactive)
C=CC(C)(C)NC(C(=O)N1CCC[C@H]1c1nc(-c2nc(C(=O)OCC=C(C)C)c(C)o2)c(C)o1)C(C)C (stereo not given in full) | > 59.7 µM (inactive) | 32.2 µM (inactive) | > 52 µM (inactive) | > 84.7 µM (inactive) | 46.6 µM (inactive) | > 66.1 µM (inactive) | > 64 µM (inactive) | > 55 µM (inactive) | > 45.9 µM (inactive) | 52.1 µM (inactive) | > 48.2 µM (inactive) | > 52 µM (inactive) | > 48.2 µM (inactive) | 47.1 µM (inactive) | > 48.8 µM (inactive) | > 100 µM (inactive) | 33.3 µM (inactive) | > 45.1 µM (inactive) | > 100 µM (inactive) | 23.9 µM (inactive)
CCOC(=O)/C=C(/C(=O)OCC)n1cc(C)c(=O)n(/C(=C/C(=O)OCC)C(=O)OCC)c1=O | 0.354 µM (active) | 1.89 µM (inactive) | 3.06 µM (inactive) | 13.7 µM (inactive) | 2.79 µM (inactive) | 2.19 µM (inactive) | 5.22 µM (inactive) | 8.36 µM (inactive) | 1.89 µM (inactive) | 4.75 µM (inactive) | 8.85 µM (inactive) | 2.69 µM (inactive) | 6.93 µM (inactive) | 7.31 µM (inactive) | 6.01 µM (inactive) | 9.48 µM (inactive) | 8.47 µM (inactive) | 2.5 µM (inactive) | 1.88 µM (inactive) | 3.78 µM (inactive)
O=C1Nc2ccc(Br)cc2/C1=N/Nc1ccccc1[N+](=O)[O-] | 12.5 µM (inactive) | 10.2 µM (inactive) | 6.31 µM (inactive) | 12.2 µM (inactive) | 10.7 µM (inactive) | 19.7 µM (inactive) | 15.8 µM (inactive) | 15.8 µM (inactive) | 3.83 µM (inactive) | 0.261 µM (active) | > 100 µM (inactive) | 13.8 µM (inactive) | 35.4 µM (inactive) | 8.63 µM (inactive) | 13.6 µM (inactive) | 13 µM (inactive) | 14.4 µM (inactive) | 21.1 µM (inactive) | 16.4 µM (inactive) | 17 µM (inactive)
CC(=O)c1c2c(cc3c1CC1(C3)Cc3ccc4c(c3C1=O)CCC4)CCC2 (stereo not given) | 19.3 µM (inactive) | 4.61 µM (inactive) | 7.13 µM (inactive) | 99.3 µM (inactive) | > 100 µM (inactive) | 57.1 µM (inactive) | 16 µM (inactive) | 2.07 µM (inactive) | 65.3 µM (inactive) | 87.3 µM (inactive) | > 100 µM (inactive) | 11.8 µM (inactive) | 56.9 µM (inactive) | 13.4 µM (inactive) | > 100 µM (inactive) | 29.2 µM (inactive) | 23.9 µM (inactive) | 8.05 µM (inactive) | 13.5 µM (inactive) | 13.8 µM (inactive)
CC(CN1CC(=O)NC(=O)C1)N1CC(=O)NC(=O)C1 (stereo not given) [RAZOXANE] | 35.5 µM (inactive) | 155 µM (inactive) | 209 µM (inactive) | 160 µM (inactive) | 356 µM (inactive) | 522 µM (inactive) | 66.1 µM (inactive) | 243 µM (inactive) | 242 µM (inactive) | 289 µM (inactive) | 332 µM (inactive) | 119 µM (inactive) | 201 µM (inactive) | 198 µM (inactive) | 68.1 µM (inactive) | 339 µM (inactive) | 283 µM (inactive) | 485 µM (inactive) | 254 µM (inactive) | 182 µM (inactive)
O=C(NC(Cl)(C(F)(F)F)C(F)(F)F)c1ccc(F)cc1 | > 100 µM (inactive) | > 100 µM (inactive) | > 100 µM (inactive) | > 100 µM (inactive) | > 100 µM (inactive) | > 100 µM (inactive) | > 100 µM (inactive) | > 100 µM (inactive) | > 100 µM (inactive) | > 100 µM (inactive) | > 100 µM (inactive) | > 100 µM (inactive) | > 100 µM (inactive) | > 100 µM (inactive) | > 100 µM (inactive) | > 100 µM (inactive) | > 100 µM (inactive) | > 100 µM (inactive) | > 100 µM (inactive) | > 100 µM (inactive)
CC[C@@]1(O)C(=O)OCc2c1cc1n(c2=O)Cc2c-1nc1ccccc1c2/C=N/NC(=O)C[N+](C)(C)C | 0.123 µM (active) | 0.0391 µM (active) | 47.9 µM (inactive) | 0.458 µM (active) | 38.3 µM (inactive) | 15.4 µM (inactive) | 9.59 µM (inactive) | 1.65 µM (inactive) | 0.277 µM (active) | 38.8 µM (inactive) | 0.386 µM (active) | 13.2 µM (inactive) | 1.11 µM (active) | 1.5 µM (inactive) | 0.802 µM (active) | 4.59 µM (inactive) | 41.2 µM (inactive) | 16.1 µM (inactive) | 4.93 µM (inactive) | 9.62 µM (inactive)
C/C(=N\Nc1nc2cccnc2s1)c1ccccn1 | < 0.01 µM (active) | 0.0335 µM (active) | < 0.01 µM (active) | 0.316 µM (active) | < 0.0169 µM (active) | 0.364 µM (active) | 0.0202 µM (active) | < 0.01 µM (active) | < 0.01 µM (active) | < 0.0141 µM (active) | 0.124 µM (active) | < 0.01 µM (active) | < 0.0189 µM (active) | 0.033 µM (active) | < 0.0155 µM (active) | 1.07 µM (active) | 1.07 µM (active) | 0.8 µM (active) | < 0.0143 µM (active) | 1.81 µM (inactive)
CC1CC[C@@]2(OC1)OC1C[C@H]3[C@@H]4CC=C5C[C@@H](OC6OC(CO)C(OC7OC(CO)C(O)C(O)C7O)C(O)C6OC6OC(C)C(O)C(O)C6O)CC[C@]5(C)[C@H]4CC[C@]3(C)C1[C@@H]2C (stereo not given in full) | 0.617 µM (active) | 0.402 µM (active) | 0.544 µM (active) | 0.476 µM (active) | 0.643 µM (active) | 0.53 µM (active) | 0.469 µM (active) | 2.07 µM (inactive) | 1.24 µM (inactive) | 0.516 µM (active) | 0.491 µM (active) | 0.475 µM (active) | 0.493 µM (active) | 0.543 µM (active) | 0.873 µM (active) | 0.484 µM (active) | 1.53 µM (inactive) | 0.558 µM (active) | 0.526 µM (active) | 0.863 µM (active)
CC(C)(C)C1=CC(=C2C=Cc3ccccc3O2)C=C(C(C)(C)C)C1=O | 2.09 µM (inactive) | 1.85 µM (inactive) | 6.59 µM (inactive) | 4.71 µM (inactive) | 2.23 µM (inactive) | 6.25 µM (inactive) | 4.09 µM (inactive) | 3.81 µM (inactive) | 5.51 µM (inactive) | 6.53 µM (inactive) | 7.05 µM (inactive) | 3.76 µM (inactive) | 2.46 µM (inactive) | 3.81 µM (inactive) | 8.79 µM (inactive) | 1.61 µM (inactive) | 2.41 µM (inactive) | 1.75 µM (inactive) | 2.15 µM (inactive) | 2.31 µM (inactive)
S=C(N/N=C(/c1ccccc1)c1ccccn1)N(Cc1ccccn1)Cc1ccccn1 | < 0.01 µM (active) | 0.906 µM (active) | 0.0608 µM (active) | 0.564 µM (active) | 0.183 µM (active) | 1.05 µM (active) | 0.0541 µM (active) | 0.0838 µM (active) | 0.0418 µM (active) | < 0.01 µM (active) | 0.119 µM (active) | < 0.01 µM (active) | < 0.016 µM (active) | 0.358 µM (active) | < 0.0488 µM (active) | 1.63 µM (inactive) | 0.507 µM (active) | 0.841 µM (active) | < 0.0302 µM (active) | 1.31 µM (inactive)
CC1(C)COCN1COC1CCCCC1 | 4.91 µM (inactive) | 20.1 µM (inactive) | > 100 µM (inactive) | > 100 µM (inactive) | > 100 µM (inactive) | > 100 µM (inactive) | > 100 µM (inactive) | > 100 µM (inactive) | > 100 µM (inactive) | > 100 µM (inactive) | > 100 µM (inactive) | > 100 µM (inactive) | > 100 µM (inactive) | > 100 µM (inactive) | > 100 µM (inactive) | > 100 µM (inactive) | > 100 µM (inactive) | > 100 µM (inactive) | > 100 µM (inactive) | > 100 µM (inactive)
O=[N+]([O-])c1ccc2[nH]ncc2c1Cl | 46 µM (inactive) | 1.03 µM (active) | 20.6 µM (inactive) | 16.6 µM (inactive) | 33.8 µM (inactive) | 33.5 µM (inactive) | 29.6 µM (inactive) | 26.5 µM (inactive) | 24.7 µM (inactive) | 18 µM (inactive) | 36.7 µM (inactive) | 17.9 µM (inactive) | 42.5 µM (inactive) | 13.3 µM (inactive) | 8.69 µM (inactive) | 29.6 µM (inactive) | 26.8 µM (inactive) | 36.1 µM (inactive) | 20.1 µM (inactive) | 16.1 µM (inactive)
